From paper PMC5218480 (PLoS ONE, 2017)

System: MV-4-11 cells
Test: Gene expression microarray analysis (Affymetrix PrimeView) and GSEA
Format: cell-based, human
Set-up: RFU PODN (11730768_x_at) / Fold change /veh PODN (11730768_x_at) / RFU LINC00158 (11744669_a_at) / Fold change /veh LINC00158 (11744669_a_at) / RFU DUSP10 (11751237_a_at) / Fold change /veh DUSP10 (11751237_a_at) / RFU ID3 (11757404_x_at) / Fold change /veh ID3 (11757404_x_at) / RFU PLEKHG5 (11737974_s_at) / Fold change /veh PLEKHG5 (11737974_s_at) / RFU LRRC4B (11730491_at) / Fold change /veh LRRC4B (11730491_at) / RFU GIMAP4 (11747438_a_at) / Fold change /veh GIMAP4 (11747438_a_at) / RFU KRT8 (11758183_x_at) / Fold change /veh KRT8 (11758183_x_at) / RFU CNN1 (11734310_a_at) / Fold change /veh CNN1 (11734310_a_at) / RFU VPS37D (11726825_at) / Fold change /veh VPS37D (11726825_at) / RFU C10orf10 (11716522_x_at) / Fold change /veh C10orf10 (11716522_x_at) / RFU KIR2DL2 /// KIR2DL4 /// KIR2DL5A /// KIR2DL5B /// KIR2DS1 /// KIR2DS2 /// KIR2DS3 /// KIR2DS4 /// KIR3DL3 /// KIR3DL3 /// KIR3DS1 (11738374_at) / Fold change /veh KIR2DL2 /// KIR2DL4 /// KIR2DL5A /// KIR2DL5B /// KIR2DS1 /// KIR2DS2 /// KIR2DS3 /// KIR2DS4 /// KIR3DL3 /// KIR3DL3 /// KIR3DS1 (11738374_at) / RFU C1QL1 (11718748_at) / Fold change /veh C1QL1 (11718748_at) / RFU TMPRSS4 (11747572_a_at) / Fold change /veh TMPRSS4 (11747572_a_at) / RFU HAMP (11756126_x_at) / Fold change /veh HAMP (11756126_x_at) / RFU RNFT2 (11725882_a_at) / Fold change /veh RNFT2 (11725882_a_at) / RFU NR4A2 (11747474_a_at) / Fold change /veh NR4A2 (11747474_a_at) / RFU ABCC12 (11746883_a_at) / Fold change /veh ABCC12 (11746883_a_at) / RFU TMEM136 (11760407_x_at) / Fold change /veh TMEM136 (11760407_x_at) / RFU CLDN22 /// WWC2 (11732394_at) / Fold change /veh CLDN22 /// WWC2 (11732394_at) / RFU HLA-DPB1 (11760878_x_at) / Fold change /veh HLA-DPB1 (11760878_x_at) / RFU SPINT1 (11716480_a_at) / Fold change /veh SPINT1 (11716480_a_at) / RFU GAP43 (11754022_s_at) / Fold change /veh GAP43 (11754022_s_at) / RFU A4GNT (11735810_at) / Fold change /veh A4GNT (11735810_at) / RFU PRB3 (11715151_x_at) / Fold change /veh PRB3 (11715151_x_at) / RFU TUBB4B (11761932_at) / Fold change /veh TUBB4B (11761932_at) / RFU CAPN14 (11732068_a_at) / Fold change /veh CAPN14 (11732068_a_at) / RFU TMCC2 (11721928_a_at) / Fold change /veh TMCC2 (11721928_a_at) / RFU IRGQ (11745062_a_at) / Fold change /veh IRGQ (11745062_a_at) / RFU FAM174B (11720279_a_at) / Fold change /veh FAM174B (11720279_a_at) / RFU TMPRSS4 (11748680_a_at) / Fold change /veh TMPRSS4 (11748680_a_at) / RFU FAM212B (11763350_a_at) / Fold change /veh FAM212B (11763350_a_at) / RFU PLEKHG5 (11743358_a_at) / Fold change /veh PLEKHG5 (11743358_a_at) / RFU ZSCAN30 (11745921_a_at) / Fold change /veh ZSCAN30 (11745921_a_at) / RFU CMKLR1 (11741424_a_at) / Fold change /veh CMKLR1 (11741424_a_at) / RFU LOC101060620 /// MAPK8IP1 (11723275_at) / Fold change /veh LOC101060620 /// MAPK8IP1 (11723275_at) / RFU SPTSSB (11747773_x_at) / Fold change /veh SPTSSB (11747773_x_at) / RFU PRSS12 (11739890_at) / Fold change /veh PRSS12 (11739890_at) / RFU BIN1 (11741810_x_at) / Fold change /veh BIN1 (11741810_x_at) / RFU WNT11 (11732464_a_at) / Fold change /veh WNT11 (11732464_a_at) / RFU C10orf10 (11716521_a_at) / Fold change /veh C10orf10 (11716521_a_at) / RFU C5orf56 (11738089_at) / Fold change /veh C5orf56 (11738089_at) / RFU CYB561 (11721691_x_at) / Fold change /veh CYB561 (11721691_x_at) / RFU ANKRD19P (11752326_a_at) / Fold change /veh ANKRD19P (11752326_a_at) / RFU OR2T12 /// OR2T33 /// OR2T8 (11738714_s_at) / Fold change /veh OR2T12 /// OR2T33 /// OR2T8 (11738714_s_at) / RFU VCAN (11748164_a_at) / Fold change /veh VCAN (11748164_a_at) / RFU JSRP1 (11732532_at) / Fold change /veh JSRP1 (11732532_at) / RFU KRTAP10-11 (11738290_x_at) / Fold change /veh KRTAP10-11 (11738290_x_at) / RFU MYO3A (11730013_a_at) / Fold change /veh MYO3A (11730013_a_at) / RFU EBF3 (11725865_a_at) / Fold change /veh EBF3 (11725865_a_at) / RFU CAMK2N1 (11719241_x_at) / Fold change /veh CAMK2N1 (11719241_x_at) / RFU C5orf56 (11738088_a_at) / Fold change /veh C5orf56 (11738088_a_at) / RFU OLFML3 (11715873_a_at) / Fold change /veh OLFML3 (11715873_a_at) / RFU LOC100653217 /// NTM (11731650_a_at) / Fold change /veh LOC100653217 /// NTM (11731650_a_at) / RFU MAPK11 (11762145_a_at) / Fold change /veh MAPK11 (11762145_a_at) / RFU FIZ1 (11724087_x_at) / Fold change /veh FIZ1 (11724087_x_at) / RFU OASL (11726364_x_at) / Fold change /veh OASL (11726364_x_at) / RFU SOX15 (11748057_x_at) / Fold change /veh SOX15 (11748057_x_at) / RFU CD79A (11719716_a_at) / Fold change /veh CD79A (11719716_a_at) / RFU HIST1H1D (11736915_at) / Fold change /veh HIST1H1D (11736915_at) / RFU CASKIN2 (11723855_a_at) / Fold change /veh CASKIN2 (11723855_a_at) / RFU LOC730098 (11760151_x_at) / Fold change /veh LOC730098 (11760151_x_at) / RFU OR4N2 (11742367_at) / Fold change /veh OR4N2 (11742367_at) / RFU PRRT2 (11749266_a_at) / Fold change /veh PRRT2 (11749266_a_at) / RFU SNX32 (11753110_a_at) / Fold change /veh SNX32 (11753110_a_at) / RFU CDHR5 (11726645_a_at) / Fold change /veh CDHR5 (11726645_a_at) / RFU RCAN1 (11760418_a_at) / Fold change /veh RCAN1 (11760418_a_at) / RFU FAM167A (11723789_a_at) / Fold change /veh FAM167A (11723789_a_at) / RFU FAM26E (11764081_at) / Fold change /veh FAM26E (11764081_at) / RFU ISYNA1 (11749810_s_at) / Fold change /veh ISYNA1 (11749810_s_at) / RFU ACY1 (11761880_at) / Fold change /veh ACY1 (11761880_at) / RFU 11764098_at / Fold change /veh 11764098_at / RFU SAMD14 (11745864_x_at) / Fold change /veh SAMD14 (11745864_x_at) / RFU NPB (11741838_a_at) / Fold change /veh NPB (11741838_a_at) / RFU TMPRSS6 (11731388_a_at) / Fold change /veh TMPRSS6 (11731388_a_at) / RFU KRTAP10-2 (11738614_at) / Fold change /veh KRTAP10-2 (11738614_at) / RFU ARHGAP8 /// PRR5-ARHGAP8 (11727945_x_at) / Fold change /veh ARHGAP8 /// PRR5-ARHGAP8 (11727945_x_at) / RFU KRTAP5-7 /// NADSYN1 (11734609_at) / Fold change /veh KRTAP5-7 /// NADSYN1 (11734609_at) / RFU RASL12 (11751679_a_at) / Fold change /veh RASL12 (11751679_a_at) / RFU CDKN2B (11736163_a_at) / Fold change /veh CDKN2B (11736163_a_at) / RFU PRF1 (11729649_at) / Fold change /veh PRF1 (11729649_at) / RFU, ZNF638 /// ZNF638-IT1 / Fold change vs veh, ZNF638 /// ZNF638-IT1 / RFU, PANK3 / Fold change vs veh, PANK3 / RFU, SH3YL1 / Fold change vs veh, SH3YL1 / RFU, ZEB2 / Fold change vs veh, ZEB2 / RFU, NRIP1 / Fold change vs veh, NRIP1 / RFU, PTTG1IP / Fold change vs veh, PTTG1IP / RFU, CAPN2 / Fold change vs veh, CAPN2 / RFU, MED14 / Fold change vs veh, MED14 / RFU, SNORA58 / Fold change vs veh, SNORA58 / RFU, C1orf63 / Fold change vs veh, C1orf63 / RFU, LRRFIP1 / Fold change vs veh, LRRFIP1 / RFU, NDUFAF7 / Fold change vs veh, NDUFAF7 / RFU, SLC12A2 / Fold change vs veh, SLC12A2 / RFU, IBTK / Fold change vs veh, IBTK / RFU, ESF1 / Fold change vs veh, ESF1 / Fold change vs veh, TMEM50B / RFU, TAOK1 / Fold change vs veh, TAOK1 / RFU, ACBD3 / Fold change vs veh, ACBD3 / RFU, TMA16 / Fold change vs veh, TMA16 / RFU, RWDD3 / Fold change vs veh, RWDD3 / RFU, BCAT1 / Fold change vs veh, BCAT1 / RFU, EDEM3 / Fold change vs veh, EDEM3 / RFU, TMEM33 / Fold change vs veh, TMEM33 / RFU, WDR75 / Fold change vs veh, WDR75 / RFU, AHCTF1 / Fold change vs veh, AHCTF1 / RFU, TFRC / Fold change vs veh, TFRC / RFU, ZDHHC17 / Fold change vs veh, ZDHHC17 / RFU, NOM1 / Fold change vs veh, NOM1 / RFU, ARL8B / Fold change vs veh, ARL8B / RFU, ZBTB11 / Fold change vs veh, ZBTB11 / RFU, TAMM41 / Fold change vs veh, TAMM41 / RFU, KIAA1704 /// LOC100996395 / Fold change vs veh, KIAA1704 /// LOC100996395 / RFU, ING1 / Fold change vs veh, ING1 / RFU, TRMT61B / Fold change vs veh, TRMT61B / RFU, FUBP3 / Fold change vs veh, FUBP3 / RFU, TP53 / Fold change vs veh, TP53 / RFU, TNKS2 / Fold change vs veh, TNKS2 / RFU, ZFP14 / Fold change vs veh, ZFP14 / RFU, ACTR2 / Fold change vs veh, ACTR2 / RFU, PPP3R1 / Fold change vs veh, PPP3R1 / RFU, PIK3R1 / Fold change vs veh, PIK3R1 / RFU, HNRNPA1 / Fold change vs veh, HNRNPA1 / RFU, RNF170 / Fold change vs veh, RNF170 / RFU, ZNF28 / Fold change vs veh, ZNF28 / RFU, RNGTT / Fold change vs veh, RNGTT / RFU, OGT / Fold change vs veh, OGT / RFU, BRD1 / Fold change vs veh, BRD1 / RFU, MARS / Fold change vs veh, MARS / RFU, ZNF655 / Fold change vs veh, ZNF655 / RFU, FAHD1 / Fold change vs veh, FAHD1 / RFU, BDP1 / Fold change vs veh, BDP1 / RFU, LRRCC1 / Fold change vs veh, LRRCC1 / RFU, ARID1A / Fold change vs veh, ARID1A / RFU, ZNF146 / Fold change vs veh, ZNF146 / RFU, ZNF330 / Fold change vs veh, ZNF330 / RFU, GPN3 / Fold change vs veh, GPN3 / RFU, C9orf123 / Fold change vs veh, C9orf123 / RFU, N4BP2L2 / Fold change vs veh, N4BP2L2 / RFU, ARFIP1 / Fold change vs veh, ARFIP1 / RFU, FAM179B / Fold change vs veh, FAM179B / RFU, BCL10 / Fold change vs veh, BCL10 / RFU, UHRF1BP1L / Fold change vs veh, UHRF1BP1L / RFU, BET1 / Fold change vs veh, BET1 / RFU, CNOT2 / Fold change vs veh, CNOT2 / RFU, ZNF268 / Fold change vs veh, ZNF268 / Fold change vs veh, ZNF507 / RFU, DGCR2 / Fold change vs veh, DGCR2 / RFU, WDSUB1 / Fold change vs veh, WDSUB1 / Fold change vs veh, HSP90B1 /// MIR3652 / RFU, ADSS / Fold change vs veh, ADSS / RFU, GK / Fold change vs veh, GK / RFU, ZNF148 / Fold change vs veh, ZNF148 / RFU, TAF9 / Fold change vs veh, TAF9 / RFU, SLC1A5 / Fold change vs veh, SLC1A5 / RFU, SLMO2 / Fold change vs veh, SLMO2 / RFU, ABCC4 / Fold change vs veh, ABCC4 / RFU, LOC101060439 /// RAP1B / Fold change vs veh, LOC101060439 /// RAP1B / RFU, RFX7 / Fold change vs veh, RFX7 / RFU, GTPBP10 / Fold change vs veh, GTPBP10 / RFU, CNEP1R1 / Fold change vs veh, CNEP1R1 / RFU, BIVM-ERCC5 /// ERCC5 / Fold change vs veh, BIVM-ERCC5 /// ERCC5 / RFU, ILF3 / Fold change vs veh, ILF3 / RFU 11762660_at / Fold change /veh 11762660_at / RFU VCAN (11757783_s_at) / Fold change /veh VCAN (11757783_s_at) / RFU DDX43 (11728927_at) / Fold change /veh DDX43 (11728927_at) / RFU KRT8 (11758188_x_at) / Fold change /veh KRT8 (11758188_x_at) / RFU NKD1 (11759106_at) / Fold change /veh NKD1 (11759106_at) / RFU SRD5A1 (11742802_a_at) / Fold change /veh SRD5A1 (11742802_a_at) / RFU TPSAB1 /// TPSB2 (11721975_s_at) / Fold change /veh TPSAB1 /// TPSB2 (11721975_s_at) / RFU GSTM3 (11746129_a_at) / Fold change /veh GSTM3 (11746129_a_at) / RFU IL23R (11737362_x_at) / Fold change /veh IL23R (11737362_x_at) / RFU TMEM51 (11727254_a_at) / Fold change /veh TMEM51 (11727254_a_at) / RFU PIWIL2 (11732686_x_at) / Fold change /veh PIWIL2 (11732686_x_at) / RFU ORM1 (11744905_x_at) / Fold change /veh ORM1 (11744905_x_at) / RFU CCDC152 (11743942_at) / Fold change /veh CCDC152 (11743942_at) / RFU ECM1 (11717891_a_at) / Fold change /veh ECM1 (11717891_a_at) / RFU IL23R (11748794_a_at) / Fold change /veh IL23R (11748794_a_at) / RFU TNFAIP8L3 (11732012_x_at) / Fold change /veh TNFAIP8L3 (11732012_x_at) / RFU MBOAT4 (11741988_at) / Fold change /veh MBOAT4 (11741988_at) / RFU 11764193_at / Fold change /veh 11764193_at / RFU TMEM53 (11763286_at) / Fold change /veh TMEM53 (11763286_at) / RFU MAGEB2 (11727129_at) / Fold change /veh MAGEB2 (11727129_at) / RFU TMEM200A (11744735_a_at) / Fold change /veh TMEM200A (11744735_a_at) / RFU CCDC152 (11751479_a_at) / Fold change /veh CCDC152 (11751479_a_at) / RFU FAM211A (11726209_a_at) / Fold change /veh FAM211A (11726209_a_at) / RFU RGS16 (11746705_a_at) / Fold change /veh RGS16 (11746705_a_at) / RFU VCAN (11755009_s_at) / Fold change /veh VCAN (11755009_s_at) / RFU RHOB (11743442_s_at) / Fold change /veh RHOB (11743442_s_at) / RFU RGS16 (11720943_a_at) / Fold change /veh RGS16 (11720943_a_at) / RFU RGS16 (11720944_at) / Fold change /veh RGS16 (11720944_at) / RFU, VPS4B / Fold change vs veh, VPS4B / RFU, CREB1 / Fold change vs veh, CREB1 / RFU, DNAJC13 / Fold change vs veh, DNAJC13 / RFU, GNAQ / Fold change vs veh, GNAQ / RFU, CDK5R1 / Fold change vs veh, CDK5R1 / RFU, ZRANB3 / Fold change vs veh, ZRANB3 / RFU, CUL4A / Fold change vs veh, CUL4A / RFU, CCNY / Fold change vs veh, CCNY / RFU, UFL1 / Fold change vs veh, UFL1 / RFU, COG3 / Fold change vs veh, COG3 / RFU, DIAPH2 / Fold change vs veh, DIAPH2 / RFU, SKA2 / Fold change vs veh, SKA2 / RFU, AFF3 / Fold change vs veh, AFF3 / RFU, LMF1 / Fold change vs veh, LMF1 / RFU, IPO11 / Fold change vs veh, IPO11 / RFU, DFFB / Fold change vs veh, DFFB / RFU, FOXP1 / Fold change vs veh, FOXP1 / RFU, CARD8 / Fold change vs veh, CARD8 / RFU, STRN3 / Fold change vs veh, STRN3 / RFU, ADK / Fold change vs veh, ADK / RFU, RASSF2 / Fold change vs veh, RASSF2 / RFU, WIPF1 / Fold change vs veh, WIPF1 / RFU, LARP1B / Fold change vs veh, LARP1B / RFU, RASA1 / Fold change vs veh, RASA1 / RFU, RB1 / Fold change vs veh, RB1 / RFU, PPFIA1 / Fold change vs veh, PPFIA1 / RFU, MAT2A / Fold change vs veh, MAT2A / RFU, CCT5 / Fold change vs veh, CCT5 / RFU, WDR92 / Fold change vs veh, WDR92 / RFU, CUX1 / Fold change vs veh, CUX1 / RFU, TTC7A / Fold change vs veh, TTC7A / RFU, TMEM135 / Fold change vs veh, TMEM135 / RFU, DEPTOR / Fold change vs veh, DEPTOR / RFU, CPM / Fold change vs veh, CPM / RFU, DNAJB6 / Fold change vs veh, DNAJB6 / RFU, CACNA2D3 / Fold change vs veh, CACNA2D3 / RFU, DTX4 / Fold change vs veh, DTX4 / RFU, TFCP2 / Fold change vs veh, TFCP2 / RFU, GMCL1 /// GMCL1P1 / Fold change vs veh, GMCL1 /// GMCL1P1 / RFU, AEBP2 / Fold change vs veh, AEBP2 / RFU, SNHG1 /// SNORD22 /// SNORD25 /// SNORD26 /// SNORD27 /// SNORD28 /// SNORD29 /// SNORD31 / Fold change vs veh, SNHG1 /// SNORD22 /// SNORD25 /// SNORD26 /// SNORD27 /// SNORD28 /// SNORD29 /// SNORD31 / Fold change (Aza/veh), C12orf56 (ProbeSet 11735607_a_at) / Fold change (ACY-1035/veh), C12orf56 (ProbeSet 11735607_a_at) / Fold change (Aza/veh), FGFR1OP (ProbeSet 11751329_s_at) / Fold change (ACY-1035/veh), FGFR1OP (ProbeSet 11751329_s_at) / Fold change (Aza/veh), VPS36 (ProbeSet 11739960_a_at) / Fold change (ACY-1035/veh), VPS36 (ProbeSet 11739960_a_at) / RFU SYPL1 (11715823_x_at) / Fold change /veh SYPL1 (11715823_x_at) / RFU IGFBP7 (11715501_s_at) / Fold change /veh IGFBP7 (11715501_s_at) / RFU REEP3 (11722064_at) / Fold change /veh REEP3 (11722064_at) / RFU IGLL1 (11728026_x_at) / Fold change /veh IGLL1 (11728026_x_at): dose or concentration left out as unconfirmed
Conditions: MV-4-11 cells, 48 hours

## Nc1ccc(-c2cccs2)cc1NC(=O)c1ccc2c(c1)cc(C1CC1)n2CCN1CCOCC1 [ACY-1035]
  RFU PIWIL2 (11732686_x_at): 9.71 RFU
